Experiments:
in vitro = settings: PAMPA, pH 7.4
BV2 cells = assay: MTS metabolic activity (cytotoxicity); type: cell-based, murine; settings: BV2, MTS assay, 24 h, concentrations of 5 μM or less
Procedure: The human hepatocellular carcinoma HepG2 and human neuroblastoma SH-SY5Y cell lines were purchased from American Type Culture Collection (Manassas, VA, USA). The murine microglia BV2 cells were a generous gift from Dr. Biljana Božić Nedeljković (University of Belgrade, Belgrade, Serbia). Cells were cultured in Advanced Dulbecco’s modified Eagle’s medium (Gibco, Thermo Fisher Scientific, Waltham, MA, USA) supplemented with 10% fetal bovine serum (FBS, Gibco), 2 mM L-glutamine, 50 U/mL penicillin and 50 μg/mL streptomycin (Sigma, St. Louis, MO, USA) in a humidified atmosphere of 95% air and 5% CO2 at 37 °C, and grown to 80% confluence. Prior to cell treatment, complete medium was replaced with serum-free medium. […]
BV2 cells (5 × 10^3/well) and HepG2 and SH-SY5Y cells (1 × 10^4/well) were seeded in 96-well plates and assessed by MTS ([3-(4,5-dimethylthiazol-2-yl)-5-(3-carboxymethoxyphenyl)-2-(4-sulfophenyl)-2H tetrazolium, inner salt) assay for their response to compounds 94 and 95. Cells were treated with increasing concentrations of compounds (1–100 μM) in serum-free medium, and metabolic activity was assessed after 24 h using the CellTiter 96 Aqueous One Solution Cell Proliferation Assay (Promega, Madison, WI, USA), in accordance with the manufacturer’s instructions. Absorbance was measured with an automatic microplate reader (Tecan Safire^2, Switzerland) at a wavelength of 492 nm. […]

PBMCs = assay: Cytokine release from PHA-stimulated PBMCs; type: cell-based, human; settings: for production of pro-inflammatory cytokines IL-8, IL-1β, IL-6, IL-10, and TNF-α: 1, 2.5, and 5 μM, 18 h
Procedure: Human PBMCs from healthy donors were isolated from heparinized blood by density gradient centrifugation with Ficoll-Paque. The isolated cells were washed twice with PBS, resuspended in RPMI 1640 medium (Sigma-Aldrich, St. Louis, MO, USA) supplemented with 10% heat-inactivated fetal bovine serum (Gibco), 2 mM L-glutamine (Sigma-Aldrich), 100 U/mL penicillin (Sigma-Aldrich), and 100 μg/mL streptomycin (Sigma-Aldrich), and used in the assays.
Peripheral blood mononuclear cells were seeded (500,000 cells/well) in 24-well plates in 500 μL of growth medium and treated with compounds 94, 95, and neflamapimod (1, 2.5, and 5 μM) in the presence or absence of PHA (1 μg/mL) or the corresponding vehicle (0.1% DMSO). Cell-free supernatants were collected after 18 h of incubation (37 °C, 5% CO2) and stored at −80 °C until tested. Cytokine production was determined with BD Cytometric Bead Array human inflammatory cytokines kit (BD Bioscience) on an Attune NxT flow cytometer (Thermo Fisher Scientific, Waltham, MA, USA). Standard curves were generated using recombinant cytokines contained in the kit. The data were analyzed using the FlowJo (Tree Star, Inc., Ashland, OR, USA) and Prism (GraphPad Prism 6.0, GraphPad Software) software.

HepG2 cells = assay: MTS metabolic activity (cytotoxicity); type: cell-based, human; settings: HepG2, MTS assay, 24 h, concentrations of 5 μM or less
Procedure: (§1) The human hepatocellular carcinoma HepG2 and human neuroblastoma SH-SY5Y cell lines were purchased from American Type Culture Collection (Manassas, VA, USA). The murine microglia BV2 cells were a generous gift from Dr. Biljana Božić Nedeljković (University of Belgrade, Belgrade, Serbia). Cells were cultured in Advanced Dulbecco’s modified Eagle’s medium (Gibco, Thermo Fisher Scientific, Waltham, MA, USA) supplemented with 10% fetal bovine serum (FBS, Gibco), 2 mM L-glutamine, 50 U/mL penicillin and 50 μg/mL streptomycin (Sigma, St. Louis, MO, USA) in a humidified atmosphere of 95% air and 5% CO2 at 37 °C, and grown to 80% confluence. Prior to cell treatment, complete medium was replaced with serum-free medium. Compounds 94 and 95 were prepared as a stock solution of 30 mM in DMSO and were used at concentrations of 1–100 μM.
(§2) BV2 cells (5 × 10^3/well) and HepG2 and SH-SY5Y cells (1 × 10^4/well) were seeded in 96-well plates and assessed by MTS ([3-(4,5-dimethylthiazol-2-yl)-5-(3-carboxymethoxyphenyl)-2-(4-sulfophenyl)-2H tetrazolium, inner salt) assay for their response to compounds 94 and 95. Cells were treated with increasing concentrations of compounds (1–100 μM) in serum-free medium, and metabolic activity was assessed after 24 h using the CellTiter 96 Aqueous One Solution Cell Proliferation Assay (Promega, Madison, WI, USA), in accordance with the manufacturer’s instructions. Absorbance was measured with an automatic microplate reader (Tecan Safire^2, Switzerland) at a wavelength of 492 nm. Results are presented as a percentage of the control (DMSO).

SH-SY5Y cells = assay: MTS metabolic activity (cytotoxicity); type: cell-based, human; settings: MTS assay, 24 h, concentrations of 5 μM or less
Procedure: as §1, §2

[1] = system: TYK2(JH1domain-catalytic)
[2] = system: TLR4, COX-2, NLRP3, cPLA2 levels in brains of LPS-treated mice; assay: Western blot of brains of LPS-treated mice (ex vivo); type: in vivo; settings: 94, 95: 10 mg/kg i.p.; rivastigmine 1 mg/kg i.p.; vs LPS-treated control
Procedure: After the completion of cognitive assays carried out in the LPS model, the mice were sacrificed, and their brains were collected and stored for further analysis. In the ex vivo part of the study, murine brains were homogenized using T-PER mammalian protein extraction reagent (Thermo Fisher Scientific, Waltham, MA, USA) with protease (Merck Millipore, Burlington, MA, USA) and phosphatase inhibitors (Cayman Chemical, Ann Arbor, MI, USA). The total protein concentrations were determined using the Bradford reaction. Forty μg of the total proteins were solubilized in Laemmli buffer with 2% 2-mercaptoethanol and were subject to 10% SDS-polyacrylamide gel electrophoresis. The anticyclooxygenase 2 (COX-2, diluted 1:1000), antitoll-like receptor 4 (TLR4, diluted 1:1000), anticytosolic phospholipase A2 (cPLA2, 1:1000), and anti-inflammasome (NLPR3, diluted 1:500) were used (Thermo Fisher Scientific, Waltham, MA, USA). The endogenous control was β-actin (1:1000) (Thermo Fisher Scientific, Waltham, MA, USA). The secondary antibody was antirabbit IgG (HRP) diluted 1:2000 (Thermo Fisher Scientific, Waltham, MA, USA). Proteins were detected using the Clarity Western ECL Luminol Substrate (Bio-Rad, Hercules, CA, USA). Chemi Doc Camera with Image Lab 6.1 software (Bio-Rad) was used to quantify the integrated optical density of the bands. The results were normalized to the data obtained for β-actin after stripping the PVDF membrane using Restore Western Blot Stripping Buffer (Thermo Fisher Scientific, Waltham, MA, USA) and expressed as relative to the control. This thorough process ensures the validity and reliability of the results.

SMILES	RA @ 1000nM (PDGFRB)	RA @ 10000nM (PDGFRB)	Papp (in vitro)	RA @ 1000nM (p38α)	RA @ 10000nM (p38α)	RA @ 1000nM (PAK1)	RA @ 10000nM (PAK1)	RA @ 1000nM (EGFR(L858R))	RA @ 10000nM (EGFR(L858R))	cell viability (BV2 cells)	RA @ 1000nM (JNK3)	RA @ 10000nM (JNK3)	production of IL-12 (PBMCs)	production of pro-inflammatory cytokines IL-8, IL-1β, IL-6, IL-10, and TNF-α (PBMCs)	RA @ 1000nM (BTK)	RA @ 10000nM (BTK)	cell viability (HepG2 cells)	cell viability (SH-SY5Y cells)	RA @ 1000nM (RET)	RA @ 10000nM (RET)	other results
CC(C)Cn1ncc2cc(Cc3ccc(F)cc3F)c(C(=O)NCCN(C)C)cc21 [Compound 94, 5-(2,4-Difluorobenzyl)-N-(2-(dimethylamino)ethyl)-1-isobutyl-1H-indazole-6-carboxamide]	100%	97%	10.4 ×10⁻⁶ cm/s	2.3%	0.4%	96%	94%	100%	66%	did not affect cell viability	55%	6.8%	increased, albeit at a low level	significantly inhibited	100%	100%	did not affect cell viability	did not affect cell viability	100%	100%	RA @ 1000nM (MET): 96%; RA @ 10000nM (MET): 100%; RA @ 1000nM [1]: 78%; RA @ 10000nM [1]: 79%; RA @ 1000nM (CDK11): 100%; RA @ 10000nM (CDK11): 89%; RA @ 1000nM (PIM1): 95%; RA @ 10000nM (PIM1): 100%; RA @ 1000nM (IKKβ): 89%; RA @ 10000nM (IKKβ): 89%; brain cPLA2 expression [2]: no difference; brain levels of TLR4, COX-2, and NLRP3 [2]: significantly lower levels; RA @ 1000nM (AKT2): 89%; RA @ 10000nM (AKT2): 76%
CN(C)CCNC(=O)c1cc2c(cnn2CC2CCCCC2)cc1Cc1ccc(F)cc1F [Compound 95, 1-(Cyclohexylmethyl)-5-(2,4-difluorobenzyl)-N-(2-(dimethylamino)ethyl)-1H-indazole-6-carboxamide]	100%	96%	13.2 ×10⁻⁶ cm/s	6.7%	0.1%	100%	93%	100%	100%	did not affect cell viability	48%	3.7%	increased, albeit at a low level	significantly inhibited	100%	100%	did not affect cell viability	did not affect cell viability	100%	100%	RA @ 1000nM (MET): 100%; RA @ 10000nM (MET): 100%; RA @ 1000nM [1]: 89%; RA @ 10000nM [1]: 75%; RA @ 1000nM (CDK11): 92%; RA @ 10000nM (CDK11): 100%; RA @ 1000nM (PIM1): 100%; RA @ 10000nM (PIM1): 94%; RA @ 1000nM (IKKβ): 93%; RA @ 10000nM (IKKβ): 80%; brain cPLA2 expression [2]: no difference; brain levels of TLR4, COX-2, and NLRP3 [2]: significantly lower levels; RA @ 1000nM (AKT2): 100%; RA @ 10000nM (AKT2): 88%

— PMC12406203 (Journal of Medicinal Chemistry, 2025)
